According to PubChem BioAssay AID1963826 (Molecular Pharmacology Branch, DTP, NCI, 2024):

System: 926638-142-R-J1-PDC complex spheroid viability
Test: Anticancer human tumor 926638-142-R-J1-PDC patient-derived endometrial carcinoma cell line growth inhibition [POLQ]
Details: for IC50: curve of first compound; for viability, T/C: stronger effect = lower value
Procedure, shortened: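 Growth inhibition in 3D: complex spheroids (tumor PDC, HUVEC, MSC) treated with POLQ inhibitor combinations; where Cmax unknown, highest tested concentration 10 microM, except SN-38 at 1 microM.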

[1] = second compound 0.0316 µM, first compound 0.00316 µM
[2] = second compound 0.0316 µM, first compound 0.01 µM
[3] = second compound 0.0316 µM, first compound 0.0316 µM
[4] = second compound 0.0316 µM, first compound 0.1 µM
[5] = second compound 0.0316 µM, first compound 0.316 µM
[6] = second compound 0.0316 µM, first compound 1 µM
[7] = second compound 0.1 µM, first compound 0.00316 µM
[8] = second compound 0.1 µM, first compound 0.01 µM
[9] = second compound 0.1 µM, first compound 0.0316 µM
[10] = second compound 0.1 µM, first compound 0.1 µM
[11] = second compound 0.1 µM, first compound 0.316 µM
[12] = second compound 0.1 µM, first compound 1 µM
[13] = second compound 0.316 µM, first compound 0.00316 µM
[14] = second compound 0.316 µM, first compound 0.01 µM
[15] = second compound 0.316 µM, first compound 0.0316 µM
[16] = second compound 0.316 µM, first compound 0.1 µM
[17] = second compound 0.316 µM, first compound 0.316 µM
[18] = second compound 0.316 µM, first compound 1 µM
[19] = second compound 1 µM, first compound 0.00316 µM
[20] = second compound 1 µM, first compound 0.01 µM
[21] = second compound 1 µM, first compound 0.0316 µM
[22] = second compound 1 µM, first compound 0.1 µM
[23] = second compound 1 µM, first compound 0.316 µM
[24] = second compound 1 µM, first compound 1 µM
[25] = second compound 3.16 µM, first compound 0.00316 µM
[26] = second compound 3.16 µM, first compound 0.01 µM
[27] = second compound 3.16 µM, first compound 0.0316 µM
[28] = second compound 3.16 µM, first compound 0.1 µM
[29] = second compound 3.16 µM, first compound 0.316 µM
[30] = second compound 3.16 µM, first compound 1 µM
[31] = second compound 10 µM, first compound 0.00316 µM
[32] = second compound 10 µM, first compound 0.01 µM
[33] = second compound 10 µM, first compound 0.0316 µM
[34] = second compound 10 µM, first compound 0.1 µM
[35] = second compound 10 µM, first compound 0.316 µM
[36] = second compound 10 µM, first compound 1 µM
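Also: spheroids exposed to drugs for one week before readout.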
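For viability, T/C in this document: percent viability relative to DMSO vehicle control wells set as 100%.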

Question: With C=CCn1c(=O)c2cnc(Nc3ccc(N4CCN(C)CC4)cc3)nc2n1-c1cccc(C(C)(C)O)n1 + Cc1cccc(N(C)C(=O)C2C(O)CCN2c2nc(C)cc(C(F)(F)F)c2C#N)c1 as the molecule, how does the IC50 (second compound 0.0316 µM) read?
Answer: Its IC50 is 390 nM.

Question: And the IC50 (second compound 0.1 µM)?
Answer: Its IC50 is 714 nM.

Question: And the IC50 (second compound 0.316 µM)?
Answer: Its IC50 is 321 nM.

Question: What about the IC50 (second compound 1 µM) of the same molecule?
Answer: The IC50 was 627 nM.

Question: What about the IC50 (second compound 3.16 µM) of the same molecule?
Answer: The IC50 was 374 nM.

Question: And the IC50 (second compound 10 µM)?
Answer: The IC50 was 276 nM.

Question: What about the viability, T/C [1] of the same molecule?
Answer: Its viability, T/C is 92%.

Question: And the viability, T/C [2]?
Answer: The viability, T/C was 80.1%.

Question: What about the viability, T/C [3] of the same molecule?
Answer: The viability, T/C was 90%.

Question: And the viability, T/C [4]?
Answer: The viability, T/C was 64.9%.

Question: And the viability, T/C [5]?
Answer: The viability, T/C was 55.6%.

Question: And the viability, T/C [6]?
Answer: Its viability, T/C is 34%.

Question: What about the viability, T/C [7] of the same molecule?
Answer: The viability, T/C was 106%.

Question: What about the viability, T/C [8] of the same molecule?
Answer: The viability, T/C was 98.3%.

Question: And the viability, T/C [9]?
Answer: The viability, T/C was 88.7%.

Question: And the viability, T/C [10]?
Answer: Its viability, T/C is 77.2%.

Question: What about the viability, T/C [11] of the same molecule?
Answer: The viability, T/C was 57.8%.

Question: And the viability, T/C [12]?
Answer: The viability, T/C was 46.6%.

Question: And the viability, T/C [13]?
Answer: Its viability, T/C is 102%.

Question: And the viability, T/C [14]?
Answer: Its viability, T/C is 94.4%.

Question: And the viability, T/C [15]?
Answer: The viability, T/C was 71.6%.

Question: What about the viability, T/C [16] of the same molecule?
Answer: Its viability, T/C is 61.2%.

Question: And the viability, T/C [17]?
Answer: Its viability, T/C is 54.7%.

Question: And the viability, T/C [18]?
Answer: Its viability, T/C is 37%.

Question: And the viability, T/C [19]?
Answer: Its viability, T/C is 109%.

Question: What about the viability, T/C [20] of the same molecule?
Answer: The viability, T/C was 91.5%.

Question: And the viability, T/C [21]?
Answer: Its viability, T/C is 76.1%.

Question: What about the viability, T/C [22] of the same molecule?
Answer: The viability, T/C was 81.1%.

Question: And the viability, T/C [23]?
Answer: Its viability, T/C is 60.8%.

Question: What about the viability, T/C [24] of the same molecule?
Answer: The viability, T/C was 40.8%.

Question: What about the viability, T/C [25] of the same molecule?
Answer: Its viability, T/C is 87.7%.

Question: What about the viability, T/C [26] of the same molecule?
Answer: Its viability, T/C is 99.6%.

Question: And the viability, T/C [27]?
Answer: Its viability, T/C is 81.2%.

Question: And the viability, T/C [28]?
Answer: The viability, T/C was 78.8%.

Question: What about the viability, T/C [29] of the same molecule?
Answer: The viability, T/C was 51.1%.

Question: What about the viability, T/C [30] of the same molecule?
Answer: Its viability, T/C is 36.9%.

Question: What about the viability, T/C [31] of the same molecule?
Answer: The viability, T/C was 79.5%.

Question: And the viability, T/C [32]?
Answer: Its viability, T/C is 78.9%.

Question: And the viability, T/C [33]?
Answer: Its viability, T/C is 72.8%.

Question: What about the viability, T/C [34] of the same molecule?
Answer: Its viability, T/C is 76.2%.

Question: What about the viability, T/C [35] of the same molecule?
Answer: The viability, T/C was 46.5%.

Question: What about the viability, T/C [36] of the same molecule?
Answer: The viability, T/C was 37.7%.

Question: Which results are given for CCCS(=O)(=O)Nc1ccc(F)c(C(=O)c2c[nH]c3ncc(-c4ccc(Cl)cc4)cc23)c1F + Cc1cccc(N(C)C(=O)C2C(O)CCN2c2nc(C)cc(C(F)(F)F)c2C#N)c1?
Answer: IC50 (second compound 0.0316 µM): 9510 nM; IC50 (second compound 0.1 µM): > 10000 nM; IC50 (second compound 0.316 µM): > 10000 nM; IC50 (second compound 1 µM): > 10000 nM; IC50 (second compound 3.16 µM): 9330 nM; IC50 (second compound 10 µM): > 10000 nM; viability, T/C [3]: 110%; viability, T/C [4]: 95.8%; viability, T/C [5]: 97.4%; viability, T/C [6]: 103%; viability, T/C (second compound 0.0316 µM, first compound 3.16 µM): 102%; viability, T/C (second compound 0.0316 µM, first compound 10 µM): 47.6%; viability, T/C [9]: 117%; viability, T/C [10]: 103%; viability, T/C [11]: 96.2%; viability, T/C [12]: 96.9%; viability, T/C (second compound 0.1 µM, first compound 3.16 µM): 86.4%; viability, T/C (second compound 0.1 µM, first compound 10 µM): 58.2%; viability, T/C [15]: 114%; viability, T/C [16]: 123%; viability, T/C [17]: 94.2%; viability, T/C [18]: 97%; viability, T/C (second compound 0.316 µM, first compound 3.16 µM): 80.4%; viability, T/C (second compound 0.316 µM, first compound 10 µM): 55.1%; viability, T/C [21]: 95.1%; viability, T/C [22]: 99.4%; viability, T/C [23]: 89%; viability, T/C [24]: 110%; viability, T/C (second compound 1 µM, first compound 3.16 µM): 86%; viability, T/C (second compound 1 µM, first compound 10 µM): 49.8%; viability, T/C [27]: 104%; viability, T/C [28]: 114%; viability, T/C [29]: 87.1%; viability, T/C [30]: 88.9%; viability, T/C (second compound 3.16 µM, first compound 3.16 µM): 94.7%; viability, T/C (second compound 3.16 µM, first compound 10 µM): 46.7%; viability, T/C [33]: 97.7%; viability, T/C [34]: 94.1%; viability, T/C [35]: 77.1%; viability, T/C [36]: 76.4%; viability, T/C (second compound 10 µM, first compound 3.16 µM): 89.4%; viability, T/C (second compound 10 µM, first compound 10 µM): 56%

Question: For CCc1c2c(nc3ccc(O)cc13)-c1cc3c(c(=O)n1C2)COC(=O)[C@]3(O)CC + Cc1cccc(N(C)C(=O)C2C(O)CCN2c2nc(C)cc(C(F)(F)F)c2C#N)c1, which IC50 (second compound 0.0316 µM) is on record?
Answer: The IC50 was 6.18 nM.

Question: And the IC50 (second compound 0.1 µM)?
Answer: The IC50 was 11.9 nM.

Question: What about the IC50 (second compound 0.316 µM) of the same molecule?
Answer: The IC50 was 12 nM.

Question: And the IC50 (second compound 1 µM)?
Answer: The IC50 was 9.83 nM.

Question: And the IC50 (second compound 3.16 µM)?
Answer: The IC50 was 12.2 nM.

Question: And the IC50 (second compound 10 µM)?
Answer: The IC50 was 10.7 nM.

Question: And the viability, T/C [1]?
Answer: Its viability, T/C is 55.6%.

Question: What about the viability, T/C [2] of the same molecule?
Answer: The viability, T/C was 43.5%.

Question: What about the viability, T/C [3] of the same molecule?
Answer: Its viability, T/C is 38%.

Question: What about the viability, T/C [4] of the same molecule?
Answer: The viability, T/C was 17.1%.

Question: What about the viability, T/C [5] of the same molecule?
Answer: Its viability, T/C is 11.1%.

Question: What about the viability, T/C [6] of the same molecule?
Answer: The viability, T/C was 5.47%.

Question: And the viability, T/C [7]?
Answer: The viability, T/C was 75.3%.

Question: And the viability, T/C [8]?
Answer: The viability, T/C was 51.9%.

Question: And the viability, T/C [9]?
Answer: Its viability, T/C is 35.1%.

Question: What about the viability, T/C [10] of the same molecule?
Answer: The viability, T/C was 17.8%.

Question: And the viability, T/C [11]?
Answer: Its viability, T/C is 9.35%.

Question: What about the viability, T/C [12] of the same molecule?
Answer: Its viability, T/C is 4.26%.

Question: What about the viability, T/C [13] of the same molecule?
Answer: Its viability, T/C is 69.8%.

Question: And the viability, T/C [14]?
Answer: The viability, T/C was 52.8%.

Question: And the viability, T/C [15]?
Answer: Its viability, T/C is 35.6%.

Question: What about the viability, T/C [16] of the same molecule?
Answer: The viability, T/C was 19.3%.

Question: What about the viability, T/C [17] of the same molecule?
Answer: The viability, T/C was 12.3%.

Question: And the viability, T/C [18]?
Answer: Its viability, T/C is 4.42%.

Question: And the viability, T/C [19]?
Answer: Its viability, T/C is 69.6%.

Question: And the viability, T/C [20]?
Answer: Its viability, T/C is 50.9%.

Question: And the viability, T/C [21]?
Answer: Its viability, T/C is 29.8%.

Question: And the viability, T/C [22]?
Answer: The viability, T/C was 17%.

Question: What about the viability, T/C [23] of the same molecule?
Answer: The viability, T/C was 13.9%.

Question: What about the viability, T/C [24] of the same molecule?
Answer: Its viability, T/C is 4.44%.

Question: What about the viability, T/C [25] of the same molecule?
Answer: The viability, T/C was 62.8%.

Question: And the viability, T/C [26]?
Answer: The viability, T/C was 54%.

Question: What about the viability, T/C [27] of the same molecule?
Answer: Its viability, T/C is 35.1%.

Question: And the viability, T/C [28]?
Answer: The viability, T/C was 21.1%.

Question: What about the viability, T/C [29] of the same molecule?
Answer: Its viability, T/C is 9.95%.

Question: What about the viability, T/C [30] of the same molecule?
Answer: The viability, T/C was 5.61%.

Question: And the viability, T/C [31]?
Answer: Its viability, T/C is 69.4%.

Question: And the viability, T/C [32]?
Answer: Its viability, T/C is 50.5%.

Question: And the viability, T/C [33]?
Answer: The viability, T/C was 34.6%.

Question: What about the viability, T/C [34] of the same molecule?
Answer: The viability, T/C was 22.5%.

Question: And the viability, T/C [35]?
Answer: Its viability, T/C is 10.4%.

Question: And the viability, T/C [36]?
Answer: Its viability, T/C is 4.3%.
